Laboratory results as given in patent publication US7208505B2, “β3 adrenergic agonists” (Eli Lilly and Company, priority 2001, dated 2007).

Each compound was assayed against T1, human β3 adrenergic receptor (Homo sapiens, UniProt P13945) (assay: whole cell receptor coupled c-AMP assay (Emax relative to isoproterenol)). Details: % intrinsic activity: maximal response divided by isoproterenol maximal response times 100; transfected CHO cells; average of at least 3 runs.
T1 construct: expressed in transfected cells
T1 sequence (P13945 whole entry): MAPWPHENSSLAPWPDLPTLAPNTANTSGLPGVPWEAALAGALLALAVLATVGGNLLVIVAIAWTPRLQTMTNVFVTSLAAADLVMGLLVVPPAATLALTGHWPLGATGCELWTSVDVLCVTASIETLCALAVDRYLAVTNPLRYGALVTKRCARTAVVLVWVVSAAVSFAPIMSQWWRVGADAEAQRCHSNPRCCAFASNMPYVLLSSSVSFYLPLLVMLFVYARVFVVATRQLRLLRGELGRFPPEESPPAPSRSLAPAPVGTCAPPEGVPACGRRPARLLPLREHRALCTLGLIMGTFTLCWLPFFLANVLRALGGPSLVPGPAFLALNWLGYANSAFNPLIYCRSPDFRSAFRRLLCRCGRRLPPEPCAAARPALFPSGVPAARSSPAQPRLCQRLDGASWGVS
Format: cell-based
Text: The genes encoding the human β1-adrenergic receptor (Frielle et al., Proc. Natl. Acad. Sci., 84:7920–7924, 1987), the human β2-adrenergic receptor (Kobika et al., Proc. Natl. Acad. Sci., 84:46–50, 1987, Emorine et al., Proc. Natl. Acad. Sci., 84:6995–6999, 1987) and the human β3 adrenergic receptor (Granneman et al., Molecular Pharmacology, 44(2):264–70, 1993) are individually subcloned into a phd expression vector (Grinnell et al., Bio/Technology, 5:1189–1192, 1987) and transfected into the DXB-11 Chinese hamster ovary (CHO) cell line by calcium phosphate precipitation methodology. The stably transfected cells are grown to 95% confluency in 95% Dulbecco's modified Eagles Medium (DMEM), 5% fetal bovine serum and 0.01% proline. Media is removed and the cells are washed with phosphate buffered (pH 7.4) saline (without magnesium and calcium). Cells are then lifted using an enzyme free cell dissociation solution (Specialty Media, Lavallette, N.J.) and pelleted by centrifugation.
Cells from each of the above cell lines are resuspended and added (20,000/well) to a 96-well plate. Cells are incubated at 37° C. with representative compounds of the invention for 20 minutes in buffer (Hank's balanced salt solution, 10 mM HEPES, 0.1% BSA, 1 mM L-ascorbic acid, 0.2% dimethyl sulfoxide, 1 mM 3-isobutyl-1-methylxanthine, pH 7.4). After halting the incubation with quench buffer (50 mM Na Acetate, 0.25% Triton X-100, pH 5.8), the c-AMP level is quantified by scintillation proximity assay (SPA) using a modification of the commercially available c-AMP kit (Amersham, Arlington Heights, Ill.) with rabbit anti-cAMP antibody (ICN Biomedicals, Aurora, Ohio) for the kit.
Sigmoidal dose response curves, from the whole cell receptor coupled c-AMP assay are fit to a four parameter logistic equation using non linear regression: y=(a−d)/(1+(Dose/c)^b)+d where a and d are responses at zero and maximal dose, b is the slope factor and c is the EC50 as previously described (DeLean et al., Am. J. Physiol., 235, E97-E102, 1978). EC50 is assessed as the concentration producing 50% of the maximum response to each agonist.
Isoproterenol is accepted in the art as a non-selective β3 agonist and is widely used as a comparator in evaluating the activity of compounds. See Trends in Pharm. Sci., 15:3, 1994. The % intrinsic activity (Emax) of representative compounds of the invention is assessed relative to isoproterenol by the compound's maximal response divided by the isoproterenol maximal response times 100.
CC(C)(Cc1c[nH]c2c(Oc3cc(C#N)ccn3)cccc12)NC[C@H](O)COc1ccccc1-c1cccs1 [Example 114] was tested, and the “Emax (%) ± SEM” value was 72.1 ± 5.0%.
In the case of C[C@@H](NC[C@H](O)COc1ccccc1-c1cccs1)C(=O)N1CCc2ccccc21 [Example 131], the “Emax (%) ± SEM” value is reported as 23.6 ± 1.7%.
For CC(C)(Cc1c[nH]c2c(-c3ccsc3)cccc12)NC[C@H](O)COc1ccccc1-c1ccon1 [Example 107], the “Emax (%) ± SEM” value was 57.9 ± 6.2%.
With CC(C)(Cc1c[nH]c2ccccc12)NC[C@H](O)COc1ccccc1-c1nccs1 [Example 68] the “Emax (%) ± SEM” value was 53.2 ± 1.6%.
CC(C)(Cc1c[nH]c2cccc(F)c12)NC[C@H](O)COc1ccccc1-c1cccs1 [Example 162] was tested, and the “Emax (%) ± SEM” value was 64.2 ± 7.6%.
For C[C@H](CN1CCc2ccccc21)NC[C@H](O)COc1ccccc1-c1cccs1 [Example 128], the “Emax (%) ± SEM” value was 46.5 ± 3.0%.
CC(C)(Cc1c[nH]c2c(NS(=O)(=O)c3ccccc3)cccc12)NC[C@H](O)COc1ccccc1-c1ccon1 [Example 26] was tested, and the “Emax (%) ± SEM” value was 70.9 ± 5.4%.
COC(=O)c1ccc2c(CC(C)(C)NC[C@H](O)COc3ccccc3-c3cccs3)c[nH]c2c1 [Example 75] was tested, and the “Emax (%) ± SEM” value was 47.2 ± 0.3%.
For CC(C)(Cc1c[nH]c2c(OCCNS(C)(=O)=O)cccc12)NC[C@H](O)COc1ccccc1-c1cccs1 [Example 177], the “Emax (%) ± SEM” value was 73.8 ± 1.5%.
With CC(C)(Cc1c[nH]c2c(OCC#N)cccc12)NC[C@H](O)COc1ccccc1-c1ncco1.O=C(O)C(F)(F)F [Example 8] the “Emax (%) ± SEM” value was 82.2 ± 3.8%.
CC(C)(Cc1c[nH]c2cc(OCC#N)ccc12)NC[C@H](O)COc1ccccc1-c1cccs1 [Example 168] was tested, and the “Emax (%) ± SEM” value was 62.1 ± 3.3%.
CC(C)(Cc1c[nH]c2cc(C=CC#N)ccc12)NC[C@H](O)COc1ccccc1-c1cccs1 [Example 190] was tested, and the “Emax (%) ± SEM” value was 69.3 ± 1.3%.
In the case of CC(C)(Cc1c[nH]c2ccccc12)NC[C@H](O)COc1ccccc1-n1ccc(C#N)c1 [Example 35], the “Emax (%) ± SEM” value is reported as 50.3 ± 2.2%.
With CC(C)(Cc1c[nH]c2c(OCC#N)cccc12)NC[C@H](O)COc1ccccc1-c1cc(C#N)cs1.O=C(O)C(F)(F)F [Example 20] the “Emax (%) ± SEM” value was 59.1 ± 3.1%.
CC(=O)c1cccc(-c2cccc3c(CC(C)(C)NC[C@H](O)COc4ccccc4-c4ccon4)c[nH]c23)c1 [Example 47] was tested, and the “Emax (%) ± SEM” value was 69.2 ± 2.0%.
CC(C)(Cc1c[nH]c2c(C(N)=O)cccc12)NC[C@H](O)COc1ccccc1-c1cccs1 [Example 174] was tested, and the “Emax (%) ± SEM” value was 57.6 ± 0.6%.
For CC(C)(Cc1c[nH]c2ccccc12)NC[C@H](O)COc1ccccc1-c1csc(C#N)c1.O=C(O)C(F)(F)F [Example 15], the “Emax (%) ± SEM” value was 50.2 ± 7.3%.
With CC(C)(Cc1c[nH]c2c(OCC#N)cccc12)NC[C@H](O)COc1ccccc1-c1cocn1.O=C(O)C(F)(F)F [Example 6] the “Emax (%) ± SEM” value was 55.0 ± 3.4%.
In the case of CC(C)(Cc1c[nH]c2c(-c3ccc(C(N)=O)cc3)cccc12)NC[C@H](O)COc1ccccc1-c1cccs1 [Example 102], the “Emax (%) ± SEM” value is reported as 69.0 ± 2.2%.
In the case of CC(C)(Cc1c[nH]c2cc(C#N)ccc12)NC[C@H](O)COc1ccccc1-c1ccon1 [Example 78], the “Emax (%) ± SEM” value is reported as 58.6 ± 0.9%.
In the case of CC(C)(Cc1c[nH]c2cc(C(=O)O)ccc12)NC[C@H](O)COc1ccccc1-c1ccc(S(N)(=O)=O)s1 [Example 55], the “Emax (%) ± SEM” value is reported as 78.4 ± 0.2%.
For CC(C)(Cc1c[nH]c2c(-c3cccc(C(F)(F)F)c3)cccc12)NC[C@H](O)COc1ccccc1-c1ccon1 [Example 38], the “Emax (%) ± SEM” value was 78.0 ± 2.8%.
COC(=O)c1cccc2[nH]cc(CC(C)(C)NC[C@H](O)COc3ccccc3-c3cccs3)c12 [Example 69] was tested, and the “Emax (%) ± SEM” value was 39.1 ± 7.1%.
With CC(C)(Cc1c[nH]c2c(-c3cccs3)cccc12)NC[C@H](O)COc1ccccc1-c1ccon1 [Example 109] the “Emax (%) ± SEM” value was 68.0 ± 4.1%.
For C[C@@H](Cc1c[nH]c2c(OCC#N)cccc12)NC[C@H](O)COc1ccccc1-c1nncs1 [Example 161], the “Emax (%) ± SEM” value was 21.7 ± 3.1%.
In the case of CC(C)(Cc1c[nH]c2c(Oc3ccc(C#N)cn3)cccc12)NC[C@H](O)COc1ccccc1-c1ccon1 [Example 116], the “Emax (%) ± SEM” value is reported as 58.1 ± 1.6%.
With CC(C)(Cc1c[nH]c2c(OCC#N)cccc12)NCC(O)COc1ccccc1-c1ccoc1 (stereo not drawn) [Example 5] the “Emax (%) ± SEM” value was 66.0 ± 3.6%.
In the case of Cc1cc(-c2ccccc2OC[C@@H](O)CNC(C)(C)Cc2c[nH]c3c(OCC#N)cccc23)cs1.O=C(O)C(F)(F)F [Example 18], the “Emax (%) ± SEM” value is reported as 52.3 ± 0.7%.
In the case of CC(C)(Cc1c[nH]c2c(OCC(=O)O)cccc12)NC[C@H](O)COc1ccccc1-c1cccs1 [Example 224], the “Emax (%) ± SEM” value is reported as 94.3 ± 4.6%.
For C[C@H](NC[C@H](O)COc1ccccc1-c1cccs1)C(=O)N1CCc2ccccc21 [Example 130], the “Emax (%) ± SEM” value was 36.3 ± 1.8%.
In the case of CC(C)(Cc1c[nH]c2ccccc12)NC[C@H](O)COc1ccccc1-c1ncco1 [Example 33], the “Emax (%) ± SEM” value is reported as 75.9 ± 1.9%.
With CC(C)(Cc1c[nH]c2c(C=CS(C)(=O)=O)cccc12)NCC(O)COc1ccccc1-c1cccs1 (stereo not drawn) [Example 141] the “Emax (%) ± SEM” value was 65.0 ± 2.0%.
CC(C)(Cc1c[nH]c2ccc(OCC#N)cc12)NC[C@H](O)COc1ccccc1-c1cccs1 [Example 169] was tested, and the “Emax (%) ± SEM” value was 51.9 ± 3.4%.
CC(C)(Cc1c[nH]c2c(C(=O)O)cccc12)NC[C@H](O)COc1ccccc1-c1ccsc1 [Example 61] was tested, and the “Emax (%) ± SEM” value was 56.6 ± 2.7%.
For COC(=O)c1ccc(-c2ccccc2OC[C@@H](O)CNC(C)(C)Cc2c[nH]c3ccccc23)s1 [Example 124], the “Emax (%) ± SEM” value was 36.1 ± 7.6%.
In the case of CC(C)(Cc1c[nH]c2c(F)cccc12)NC[C@H](O)COc1ccccc1-c1cccs1 [Example 170], the “Emax (%) ± SEM” value is reported as 71.2 ± 1.2%.
With CC(C)(Cc1c[nH]c2c(-c3cccc(C(F)(F)F)c3)cccc12)NC[C@H](O)COc1ccccc1-c1cccs1 [Example 37] the “Emax (%) ± SEM” value was 82.0 ± 4.3%.
For CC(C)(Cc1c[nH]c2ccccc12)NC[C@H](O)COc1ccc(F)cc1-c1ccon1 [Example 80], the “Emax (%) ± SEM” value was 43.4 ± 2.0%.
With CC(C)(Cc1c[nH]c2c(OCC#N)cccc12)NC[C@H](O)COc1ccccc1-c1cccs1 [Example 137] the “Emax (%) ± SEM” value was 65.5 ± 4.7%.
For CC(C)(Cc1c[nH]c2c(CCc3ccc(C#N)cc3)cccc12)NC[C@H](O)COc1ccccc1-c1cccs1 [Example 187], the “Emax (%) ± SEM” value was 77.9 ± 0.7%.
In the case of CC(C)(Cc1c[nH]c2c(NS(C)(=O)=O)cccc12)NC[C@H](O)COc1ccccc1-c1ccc(S(N)(=O)=O)s1 [Example 30], the “Emax (%) ± SEM” value is reported as 90.0 ± 6.6%.
With CC(C)(Cc1c[nH]c2ccccc12)NC[C@H](O)COc1ccccc1-c1ccc(C#N)s1.Cl [Example 11] the “Emax (%) ± SEM” value was 69.0 ± 2.3%.

Same assay, conditions: CHO, % intrinsic activity relative to isoproterenol; transfected CHO cells
In the case of CC(C)(Cc1c[nH]c2cc(C(=O)O)ccc12)NC[C@H](O)COc1ccccc1-c1nccs1 [Example 204], the Emax is reported as 67%.

Same assay, conditions: CHO, % intrinsic activity: maximal response divided by isoproterenol maximal response times 100; transfected CHO cells; average of at least 3 runs
CC(C)(Cc1c[nH]c2c(/C=C/C(=O)O)cccc12)NC[C@H](O)COc1ccccc1-c1cccs1 [Example 227] gave an Emax of 87.5 ± 7.5%.
For CC(C)(Cc1c[nH]c2cccc(C(N)=O)c12)NC[C@H](O)COc1ccccc1-c1cccs1 [Example 257], the Emax was 81.8 ± 8.5%.
CC(C)(Cc1c[nH]c2c(CCc3ccc(S(N)(=O)=O)cc3)cccc12)NC[C@H](O)COc1ccccc1-c1cccs1 [Example 254] gave an Emax of 80.9 ± 4.9%.
In the case of CC(C)(Cc1c[nH]c2c(-c3ccc(C(=O)O)cc3)cccc12)NC[C@H](O)COc1ccccc1-c1ccon1 [Example 247], the Emax is reported as 54.6 ± 2.4%.
CC(C)(Cc1c[nH]c2c(C(=O)O)cccc12)NC[C@H](O)COc1ccccc1-c1cccs1 [Example 241] gave an Emax of 70.1 ± 0.6%.
With CC(C)(Cc1c[nH]c2c(OCc3nnn[nH]3)cccc12)NC[C@H](O)COc1ccccc1-c1cccs1 [Example 229] the Emax was 83 ± 2.5%.
With CC(C)(Cc1c[nH]c2c(-c3cccc(C(=O)O)c3)cccc12)NC[C@H](O)COc1ccccc1-c1cccs1 [Example 248] the Emax was 84.1 ± 1.8%.
C[C@H](Cn1ccc2c(OCC(=O)O)cccc21)NC[C@H](O)COc1ccccc1-c1ccns1 [Example 235] showed an Emax of 76.7 ± 4.4%.
CC(C)(Cc1c[nH]c2c(CCc3ccc(C(N)=O)cc3)cccc12)NC[C@H](O)COc1ccccc1-c1cccs1 [Example 220] gave an Emax of 81.2 ± 0.6%.
Work on CC(C)(Cc1c[nH]c2c(/C=C/c3nnn[nH]3)cccc12)NC[C@H](O)COc1ccccc1-c1cccs1 [Example 230] yielded an Emax of 81.3 ± 2.4%.
In the case of CC(C)(Cc1c[nH]c2ccc(OCC(=O)O)cc12)NC[C@H](O)COc1ccccc1-c1cccs1 [Example 237], the Emax is reported as 73.9 ± 2.9%.
